Measured values reported in PubChem BioAssay (NCI).
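The compound was tested at five concentrations on cells cultured in 96-well plates, with a 48-hour exposure period. Abbreviation: GI50, concentration required for 50% inhibition of growth. TGI marks complete inhibition of growth.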

Legend:
Assay in all cases: DTP human tumour cell line panel, 48 h
K-562 leukemia = tested on: K-562 leukemia
HL-60(TB) leukemia = tested on: HL-60(TB) leukemia
OVCAR-8 ovarian = tested on: OVCAR-8 ovarian
HCC-2998 colon = tested on: HCC-2998 colon
SK-MEL-2 melanoma = tested on: SK-MEL-2 melanoma
SNB-75 CNS = tested on: SNB-75 CNS
SN12C renal = tested on: SN12C renal
RPMI-8226 leukemia = tested on: RPMI-8226 leukemia
IGROV1 ovarian = tested on: IGROV1 ovarian
MOLT-4 leukemia = tested on: MOLT-4 leukemia

SMILES | GI50 (K-562 leukemia) | TGI (K-562 leukemia) | GI50 (HL-60(TB) leukemia) | TGI (HL-60(TB) leukemia) | GI50 (OVCAR-8 ovarian) | TGI (OVCAR-8 ovarian) | GI50 (HCC-2998 colon) | TGI (HCC-2998 colon) | GI50 (SK-MEL-2 melanoma) | TGI (SK-MEL-2 melanoma) | GI50 (SNB-75 CNS) | TGI (SNB-75 CNS) | GI50 (SN12C renal) | TGI (SN12C renal) | GI50 (RPMI-8226 leukemia) | TGI (RPMI-8226 leukemia) | GI50 (IGROV1 ovarian) | TGI (IGROV1 ovarian) | GI50 (MOLT-4 leukemia) | TGI (MOLT-4 leukemia)
COc1cc2c(cc1OCCCN1CCN(CCCOc3cc4c(cc3OC)C(=O)C3CCC[C@H]3C=N4)CC1)N=C[C@@H]1CCCC1C2=O (some centres undefined) | 2090 nM | > 100 µM | 1510 nM | 4.1 µM | 11.6 µM | > 52.3 µM | 7.21 µM | 17.5 µM | 1.71 µM | 4.8 µM | 24.8 µM | > 85.4 µM | 10.4 µM | > 100 µM | 240 nM | 3.81 µM | 3.27 µM | > 23.6 µM | 313 nM | 2.53 µM
O=C1c2cccnc2-c2nc(-c3ccccc3)cc3c2c1nc1ccccc13 | 658 nM | 3.91 µM | 1120 nM | 3.01 µM | 3.06 µM | > 63.1 µM | 4.95 µM | 18.5 µM | 5.53 µM | 20.1 µM | 10.5 µM | 23.1 µM | 7.14 µM | 21.1 µM | 210 nM |  | 2.35 µM | 8.92 µM | 2500 nM | 14.8 µM
Nc1ccc(C(=O)O)c2[nH]c3ccccc3c(=O)c12 |  | > 100 µM |  | > 100 µM |  | > 100 µM |  | > 100 µM |  | > 100 µM |  | > 100 µM |  | > 100 µM |  | > 100 µM |  | > 100 µM |  | > 100 µM
CCOc1ccc(NC(=O)/C(=C/c2ccccc2)C(C)=O)cc1 |  | 41.4 µM |  | 9.66 µM |  | 43.1 µM |  | 27.1 µM |  | 26.4 µM |  | 17.9 µM |  | 35 µM |  | 10.6 µM |  | 29.1 µM |  | 19.5 µM
CC[C@]12C=CCN3CC[C@]4(C(=C(C(=O)OC)C1)Nc1ccccc14)[C@@H]32 | 3080 nM | 15.1 µM | 3180 nM | 11.5 µM | 3.75 µM | > 100 µM | 11.4 µM | 24.9 µM | 4.45 µM | 17.7 µM | 2.15 µM | 7.93 µM | 3.62 µM | 18.2 µM | 3170 nM | 17.8 µM | 5.8 µM | 20.6 µM | 3160 nM | 14.7 µM
c1ccc(COc2ccc(Nc3ncnc4ccc(-c5ccco5)cc34)cc2)cc1 | 9740 nM | > 25 µM | 7030 nM | 19.2 µM | 11.3 µM | > 25 µM | 10.6 µM | > 25 µM | 9.68 µM | 24.6 µM | 6.82 µM | > 18.9 µM | 8.49 µM | > 25 µM | 5500 nM | 20.2 µM | 7.11 µM | > 23.1 µM | 11700 nM | > 25 µM
Cn1cc(-c2csc(-c3cn(C)c4ncccc34)n2)c2ccccc21 | 103 nM | 16.6 µM | 283 nM | 18.8 µM | 0.666 µM | 22.7 µM | 1.15 µM | > 100 µM | 0.405 µM | 16.8 µM | 0.191 µM | 0.737 µM | 3.07 µM | > 100 µM | 396 nM | 25.3 µM | 1.28 µM | 33.6 µM | 613 nM | > 52.2 µM
